This passage reports MIC and ED50 results from patent US4316898A, “Cephalosporins” (Boehringer Ingelheim KG, priority 1979, dated 1982).

By MIC is commonly meant the lowest concentration that inhibits growth of the organism. Usually ED50 stands for the dose that gives a 50% effect, or the effect in half of the subjects. Read a high ED50 as weaker potency.

In brackets after ≈: the same amount, converted by molar mass.

In assay [1] the test system is Pseudomonas aeruginosa Walter. The assay is described as follows: Serial dilution test in the microtiter system, MIC against Pseudomonas aeruginosa Walter. In kind it is cell-based. The conditions noted are these: minimum inhibitory concentration, 37° C., 18 to 20 hours, read-out: MIC, Pseud. aerug. Walter. How it is done:
(§1) The tests were performed using the serial dilution test in the microtiter system. The effect of the test compounds on bacteriostasis was examined at the following concentrations: 80, 40, 20, 10, 5, 2.5, 1.25, 0.6, 0.3, 0.08 and 0.02 μgm/ml. The nutrient medium consisted of 10 gm of peptone, 8 gm of meat extract oxoid, 3 gm of sodium chloride, and 2 gm of sec. sodium phosphate diluted with distilled water to […] (pH 7.2-7.4). Only in the test against streptococci 1% of glucose was added. The age of the primary cultures was approximately 20 hours. The standardization of the bacteria suspension was effected using a photometer according to the method of Eppendorf (test tube .phi. 14 mm, filter 546 nm), using for comparison a barium sulfate suspension formed by the addition of 3.0 ml of 1% barium chloride solution to 97 ml of 1% sulfuric acid. After the standardization,Streptococcus aronson was further diluted to a concentration of 1:15, and the other bacteria to a concentration of 1:1500, using a sodium chloride solution.
(§2) 16 mgm of the particular test compound were put into a 10 ml measuring flask, and the flask was subsequently filled to the mark with solvent. The further dilution series was standardized with distilled water or the appropriate solvent.
(§3) The cavities of the microtiter plates were filled with 0.2 ml of nutrient medium. 0.01 ml of the appropriate test compound solution was then added, followed by inoculation with 0.01 ml of the standardized bacteria suspension. The bacteria were incubated at 37° C. for 18 to 20 hours. Control tests using only the solvent were carried out simultaneously.
(§4) The measurement was carried out macroscopically to determine the minimum inhibitory concentration (the lowest still bacteriostatically effective concentration).
(§5) The following test organisms were used:
(§6) Staphylococcus aureus SG 511, St. aureus E 88 (β-lactamase carrier), Escherichia coli ATCC 11 775, Pseudomonas aeruginosa Hamburgensis and Pseudomonas aeruginosa Walter, Serratia macrescens ATCC 13 880, Klebsiella pneumoniae ATCC 10 031 and 272, Proteus mirabilis Hamburgensis, Proteus rettgeri Eb. cloaceae ATCC 13047, and E. coli R+TEM (β-lactamase carrier).
(§7) The following tables show the determined minimum inhibitory concentrations (MIC) for a few representative compounds (E=Na) of the present invention, and two known cephalosporins for comparison: […]

In assay [2] the test system is Klebsiella pneumoniae 272. The assay is described as follows: Serial dilution test in the microtiter system, MIC against Klebsiella pneumoniae 272. The conditions noted are these: minimum inhibitory concentration, 37° C., 18 to 20 hours, read-out: MIC, Klebs. pneum. 272. In kind it is cell-based. On the procedure:
as §1, §2, §3, §4, §5, §6, §7

The test system of assay [3] is Pseudomonas aeruginosa Hamburgensis. The assay is described as follows: Serial dilution test in the microtiter system, MIC against Pseudomonas aeruginosa Hamburgensis. The format is cell-based. Conditions: minimum inhibitory concentration, 37° C., 18 to 20 hours, read-out: MIC, Pseud. aerug. Hbg. On the procedure:
as §1, §2, §3, §4, §5, §6, §7

Assay [4] deals with St. aureus E 88. The assay is described as follows: Serial dilution test in the microtiter system, MIC against S. aureus E 88 (β-lactamase carrier). The format is cell-based. Conditions: Staphylococcus aureus, E88, minimum inhibitory concentration, 37° C., 18 to 20 hours. On the procedure:
as §1, §2, §3, §4, §5, §6, §7

The subject of assay [5] is Serratia macrescens ATCC 13 880. The assay is described as follows: Serial dilution test in the microtiter system, MIC against Serratia marcescens ATCC 13880. In kind it is cell-based. Conditions: read-out: MIC, Serr. marcesc. ATCC 13880. How it is done: as §1, §2, §3, §4, §5, §6, §7
Assay [6] relates to Escherichia coli ATCC 11 775. The assay is described as follows: Serial dilution test in the microtiter system, MIC against E. coli ATCC 11775. In kind it is cell-based. Conditions: minimum inhibitory concentration, 37° C., 18 to 20 hours. On the procedure: as §1, §2, §3, §4, §5, §6, §7
Assay [7] relates to Staphylococcus aureus SG 511. The assay is described as follows: Serial dilution test in the microtiter system, MIC against S. aureus SG 511. In kind it is cell-based. The conditions noted are these: SG511, minimum inhibitory concentration, 37° C., 18 to 20 hours. How it is done: as §1, §2, §3, §4, §5, §6, §7
Assay [8] relates to Proteus rettgeri. The assay is described as follows: Serial dilution test in the microtiter system, MIC against Proteus rettgeri. In kind it is cell-based. Conditions: Providencia rettgeri; minimum inhibitory concentration; 37° C., 18 to 20 hours; read-out: MIC, Prot. rettg. How it is done:
as §1, §2, §3, §4, §5, §6, §7

The test system of assay [9] is Klebsiella pneumoniae ATCC 10 031. The assay is described as follows: Serial dilution test in the microtiter system, MIC against Klebsiella pneumoniae ATCC 10031. The format is cell-based. The conditions noted are these: minimum inhibitory concentration, 37° C., 18 to 20 hours, read-out: MIC, Klebs. pneum. ATCC 10031. How it is done: as §1, §2, §3, §4, §5, §6, §7

For assay [10], the system named is Eb. cloaceae ATCC 13047. The assay is described as follows: Serial dilution test in the microtiter system, MIC against Eb. cloaceae ATCC 13047. In kind it is cell-based. Conditions: minimum inhibitory concentration; 37° C., 18 to 20 hours. On the procedure: as §1, §2, §3, §4, §5, §6, §7
The subject of assay [11] is E. coli R+TEM. The assay is described as follows: Serial dilution test in the microtiter system, MIC against E. coli R+TEM (β-lactamase carrier). In kind it is cell-based. The conditions noted are these: Escherichia coli, read-out: MIC, E. coli R + TEM. On the procedure:
as §1, §2, §3, §4, §5, §6, §7

The subject of assay [12] is Proteus mirabilis Hamburgensis. The assay is described as follows: Serial dilution test in the microtiter system, MIC against Proteus mirabilis Hamburgensis. The format is cell-based. Conditions: minimum inhibitory concentration, 37° C., 18 to 20 hours, read-out: MIC, Prot. Mir. Hbg. How it is done:
as §1, §2, §3, §4, §5, §6, §7

Assay [13] concerns E. coli ATCC 11775. The assay is described as follows: In vivo test in mice against experimental E. coli infection. The conditions noted are these: Escherichia coli, ATCC11775, sc, 168 h; subcutaneous; per dose; dose at which 50% of the animals survived; observation 7 days. Also on record: species or system Female NMRI mice. On the procedure: (§8) A series of the compounds according to the invention was tested in vivo in mice against experimental infections. As pathogenic bacteria were used E. coli ATCC 11775 and Pseudomonas aeruginosa Walter. An intraperitoneal infection was induced in each mouse with 0.2 ml of a 5% mucin suspension of the bacteria corresponding of approximately 1.4×10^6 E. coli cells and 1.3×10^6 Pseudomonas cells per mouse. Female NMRI mice were used, divided into groups of 10 animals. Two groups were untreated and the remaining groups were treated with different doses of the cephalosporins to be tested to determine the ED50 (dose at which 50% of the animals survived). The groups infected with E. coli were on the first day treated with the test compound three times ([…] post infectionem) and on the second day twice. The groups with the Pseudomonas infection were on the first day treated with the test compound six times (1, 3, 5, 7, 9 and 11 hours post infectionem), and on the following two days twice.
(§9) The observation time was in both cases 7 days.

The subject of assay [14] is Pseudomonas aeruginosa Walter. The assay is described as follows: In vivo test in mice against experimental Pseudomonas infection. Also on record: species or system Female NMRI mice. Conditions: Pseudomonas aeruginosa, sc, 168 h; subcutaneous; per dose; dose at which 50% of the animals survived; observation 7 days. On the procedure:
as §8, §9

On to `CNc1nnc(SCC2=C(C(=O)O)N3C(=O)[C@@H](NC(=O)[C@H](NC(=O)Nc4cnc(Nc5ccc(S(=O)(=O)NC)cc5)nc4O)c4ccc(O)cc4)[C@H]3SC2)s1` [J], for which the MIC in [1] amounted to 8 µg/mL (≈ 9.64 µM); in assay [2], 0.25 µg/mL (≈ 0.301 µM); in assay [3], 8 µg/mL (≈ 9.64 µM); in [4], 16 µg/mL (≈ 19.3 µM); in [5], 0.5 µg/mL (≈ 0.602 µM); in assay [6], 0.5 µg/mL (≈ 0.602 µM). Moreover, the MIC in [7] stood at 1 µg/mL (≈ 1.2 µM); in assay [8], 1 µg/mL (≈ 1.2 µM); in [9] it was 0.5 µg/mL (≈ 0.602 µM); in assay [10], 1 µg/mL (≈ 1.2 µM); in assay [11], 8 µg/mL; in assay [12], 0.25 µg/mL (≈ 0.301 µM).
Consider `Cn1nnnc1SCC1=C(C(=O)O)N2C(=O)[C@@H](NC(=O)C(NC(=O)Nc3cnc(NC4CCC(O)CC4)nc3O)c3cccs3)[C@H]2SC1` (some centres unmarked) [F], for which the MIC turned out to be 16 µg/mL (≈ 22.3 µM) in assay [1]; 2 µg/mL (≈ 2.79 µM) in assay [2]; 16 µg/mL (≈ 22.3 µM) in assay [3]; 8 µg/mL (≈ 11.1 µM) in assay [4]; 2 µg/mL (≈ 2.79 µM) in assay [5]; 0.5 µg/mL (≈ 0.697 µM) in assay [6]. Besides, the MIC in assay [7] was 1 µg/mL (≈ 1.39 µM); in [8], 2 µg/mL (≈ 2.79 µM); in [9], 2 µg/mL (≈ 2.79 µM); in assay [10], 4 µg/mL (≈ 5.57 µM); in assay [11] it was 16 µg/mL; in [12], 0.5 µg/mL (≈ 0.697 µM).
On to `CNS(=O)(=O)c1ccc(Nc2ncc(NC(=O)N[C@@H](C(=O)N[C@@H]3C(=O)N4C(C(=O)O)=C(CSc5nnnn5C)CS[C@H]34)c3ccc(O)cc3)c(O)n2)cc1` [K], for which the MIC in [1] is 2 µg/mL (≈ 2.5 µM); in assay [2], 0.13 µg/mL (≈ 0.163 µM); in [3], 4 µg/mL (≈ 5.01 µM); in assay [4], 4 µg/mL (≈ 5.01 µM); in assay [5], 0.13 µg/mL (≈ 0.163 µM); in [6] it was < 0.03 µg/mL. For the same compound, the MIC was 0.5 µg/mL (≈ 0.626 µM) in [7]; 0.25 µg/mL (≈ 0.313 µM) in assay [8]; 0.06 µg/mL (≈ 0.0751 µM) in assay [9]; 0.5 µg/mL (≈ 0.626 µM) in assay [10]; 2 µg/mL in assay [11]; 0.06 µg/mL (≈ 0.0751 µM) in [12]. Further, the ED50 was found to be 0.3 mg/kg in assay [13] and 3.6 mg/kg in assay [14].
As to `Cn1nnnc1SCC1=C(C(=O)O)N2C(=O)[C@@H](NC(=O)C(NC(=O)Nc3cnc(Nc4ccc(S(N)(=O)=O)cc4)nc3O)c3cccs3)[C@H]2SC1` (some centres unmarked) [M], the MIC in [1] is 4 µg/mL (≈ 5.16 µM); in assay [2] it was 0.25 µg/mL (≈ 0.323 µM); in assay [3], 4 µg/mL (≈ 5.16 µM); in assay [4] it was 4 µg/mL (≈ 5.16 µM); in assay [5], 0.25 µg/mL (≈ 0.323 µM); in [6] it was 0.13 µg/mL (≈ 0.168 µM). In addition, the MIC was 0.5 µg/mL (≈ 0.645 µM) in [7]; 0.5 µg/mL (≈ 0.645 µM) in assay [8]; 0.25 µg/mL (≈ 0.323 µM) in assay [9]; 0.5 µg/mL (≈ 0.645 µM) in assay [10]; 4 µg/mL in assay [11]; 0.13 µg/mL (≈ 0.168 µM) in assay [12].
In the case of `CNS(=O)(=O)c1ccc(Nc2ncc(NC(=O)N[C@@H](C(=O)N[C@@H]3C(=O)N4C(C(=O)O)=C(COC(C)=O)CS[C@H]34)c3ccc(O)cc3)c(O)n2)cc1` [H], the MIC in assay [1] was determined as 4 µg/mL (≈ 5.39 µM); in assay [2], 0.5 µg/mL (≈ 0.673 µM); in [3] it was 4 µg/mL (≈ 5.39 µM); in assay [4], 16 µg/mL (≈ 21.5 µM); in assay [5], 0.5 µg/mL (≈ 0.673 µM); in assay [6], 0.13 µg/mL (≈ 0.175 µM). For the same compound, the MIC in assay [7] is 1 µg/mL (≈ 1.35 µM); in [8] it was 0.5 µg/mL (≈ 0.673 µM); in [9], 0.5 µg/mL (≈ 0.673 µM); in assay [10] it was 2 µg/mL (≈ 2.69 µM); in [11], 16 µg/mL; in [12], 0.6 µg/mL (≈ 0.808 µM).
